# Laboratory results reported in ChEMBL document CHEMBL1139953, “Bis[(para-methoxy)benzyl] phosphonate prodrugs with improved stability and enhanced cell penetration” (Bioorg Med Chem Lett, 2007).
# Columns and labels:
# [1] = system: Hepatocyte; assay: Drug activation in rat hepatocytes by measuring intracellular NMPA levels at 100 uM after 1 hr; type: cell-based
# [2] = Stability assessed as half life in Krebs bicarbonate buffer at 37degC; type: physicochemical
# [3] = system: Liver microsomes; assay: Drug activation in NADPH-fortified human liver microsomes assessed as rate of NMPA formation; design: species or system Microsome
# [4] = Stability assessed as half life in rat plasma; type: ADME, cell-free
# [5] = system: Nucleic Acid; assay: Ratio of drug activation in NADPH-fortified human liver microsomes to NADPH-fortified rat liver microsomes assessed as rate of NMPA formation; design: species or system Microsome
# [6] = system: Liver microsomes; assay: Drug activation in NADPH-fortified rat liver microsomes assessed as rate of NMPA formation; design: species or system Microsome
# [7] = system: Liver; assay: Drug activation in NADPH-fortified rat liver without microsomes assessed as rate of NMPA formation; design: species or system Microsome
# [8] = system: Liver microsomes; assay: Drug activation in human liver microsomes assessed as rate of NMPA formation; design: species or system Microsome
SMILES,Activity [1] [nmol/g],half-life [4] [h],other results
CCOc1ccc(COP(=O)(Cc2cccc3ccccc23)OCc2ccc(OCC)c(Cl)c2)cc1Cl,54,> 2,
CCCOc1ccc(COP(=O)(Cc2cccc3ccccc23)OCc2ccc(OCCC)c(Cl)c2)cc1Cl,0,,
COc1c(Cl)cc(COP(=O)(Cc2cccc3ccccc23)OCc2cc(Cl)c(OC)c(Cl)c2)cc1Cl,0,,
CCOP(=O)(Cc1cccc2ccccc12)OCC,0,,
COc1ccc(COP(=O)(Cc2cccc3ccccc23)OCc2ccc(OC)cc2)cc1,91,0.15,half-life [2]: 0.15 h
O=P(O)(O)Cc1cccc2ccccc12,0,,
COc1c(Br)cc(COP(=O)(Cc2cccc3ccccc23)OCc2cc(Br)c(OC)c(Br)c2)cc1Br,0,,
CC(C)C(=O)OCOP(=O)(Cc1cccc2ccccc12)OCOC(=O)C(C)C,85,0.00833,

# Second part, led by results:
Activity [1] [nmol/g],half-life [4] [h],SMILES,other results
125,> 2,COc1ccc(COP(=O)(Cc2cccc3ccccc23)OCc2ccc(OC)c(F)c2)cc1F,half-life [2]: > 2 h; Activity [3]: 5.23 pmol/min/mg; Ratio [5]: 2; Activity [6]: 2.94 pmol/min/mg
130,> 2,COc1ccc(COP(=O)(Cc2cccc3ccccc23)OCc2ccc(OC)c(Cl)c2)cc1Cl,half-life [2]: > 2 h; Activity [3]: 4.52 pmol/min/mg; Ratio [5]: 2; Activity [6]: 1.58 pmol/min/mg
26,,COc1cc(COP(=O)(Cc2cccc3ccccc23)OCc2cc(Br)c(OC)c(Br)c2)cc(OC)c1OC (stereo not given),
73,> 2,COc1ccc(COP(=O)(Cc2cccc3ccccc23)OCc2ccc(OC)c(C#N)c2)cc1C#N,
46,> 2,COc1ccc(COP(=O)(Cc2cccc3ccccc23)OCc2ccc(OC)c(C(F)(F)F)c2)cc1C(F)(F)F,
76,> 2,COc1ccc(COP(=O)(Cc2cccc3ccccc23)OCc2ccc(OC)c(Br)c2)cc1Br,Activity [7]: 0 pmol/min/mg; Activity [8]: 0 pmol/min/mg; half-life [2]: > 2 h; Activity [3]: 4.85 pmol/min/mg; Ratio [5]: 2; Activity [6]: 2.76 pmol/min/mg
0,,COc1ccc(COP(=O)(Cc2cccc3ccccc23)OCc2ccc(OC)c(C(C)=O)c2)cc1C(C)=O,
60,> 2,COc1ccc(COP(=O)(Cc2cccc3ccccc23)OCc2ccc(OC)c([N+](=O)[O-])c2)cc1[N+](=O)[O-],
